Results from ChEMBL document CHEMBL1201861, “Genomics of Drug Sensitity in Cancer screening data, Wellcome Trust Sanger Institute”.

Experiments:
Experiment in all cases: cells
COLO-829 = format: functional, cell-based, Homo sapiens; conditions: Homo sapiens, COLO-829
Description: SANGER: Inhibition of human COLO-829 cell growth in a cell viability assay.

PC-3 = format: functional, cell-based, Homo sapiens; conditions: Homo sapiens, PC-3;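 further: cell viability assay measuring growth inhibition of PC-3 cells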
Description: SANGER: Inhibition of human PC-3 cell growth in a cell viability assay.

OVCAR-5 = format: functional, cell-based, Homo sapiens; conditions: Homo sapiens, OVCAR-5;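 further: growth inhibition of human OVCAR-5 cells, read out with a cell viability assay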
Description: SANGER: Inhibition of human OVCAR-5 cell growth in a cell viability assay.

HD-MY-Z = format: functional, cell-based, Homo sapiens; conditions: Homo sapiens, HD-MY-Z;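 further: growth inhibition of HD-MY-Z cells, read out with a cell viability assay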
Description: SANGER: Inhibition of human HD-MY-Z cell growth in a cell viability assay.

NCI-N87 = format: functional, cell-based, Homo sapiens; conditions: Homo sapiens, NCI-N87;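 further: growth inhibition of human NCI-N87 cells, read out with a cell viability assay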
Description: SANGER: Inhibition of human NCI-N87 cell growth in a cell viability assay.

BB30-HNC = format: functional, cell-based, Homo sapiens; conditions: Homo sapiens, BB30-HNC;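 further: growth inhibition of the cultured cell line, read out by a cell viability assay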
Description: SANGER: Inhibition of human BB30-HNC cell growth in a cell viability assay.

ES8 = format: functional, cell-based, Homo sapiens; conditions: Homo sapiens, ES8;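 further: growth inhibition of human ES8 cells, read out with a cell viability assay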
Description: SANGER: Inhibition of human ES8 cell growth in a cell viability assay.

BHT-101 = format: functional, cell-based, Homo sapiens; conditions: Homo sapiens, BHT-101
Description: SANGER: Inhibition of human BHT-101 cell growth in a cell viability assay.

KP-N-YN = format: functional, cell-based; conditions: Homo sapiens;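 further: growth inhibition of KP-N-YN cells, read out with a cell viability assay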
Description: SANGER: Inhibition of human KP-N-YN cell growth in a cell viability assay.

CAL-27 = format: functional, cell-based, Homo sapiens; conditions: Homo sapiens, CAL-27;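 further: Viability-based readout, IC50 reflecting inhibition of CAL-27 cell growth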
Description: SANGER: Inhibition of human CAL-27 cell growth in a cell viability assay.

C-33-A = format: functional, cell-based, Homo sapiens; conditions: Homo sapiens, C-33-A;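 further: cell viability assay measuring growth inhibition of C-33-A cells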
Description: SANGER: Inhibition of human C-33-A cell growth in a cell viability assay.

NOMO-1 = format: functional, cell-based; conditions: Homo sapiens;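 further: growth inhibition of human NOMO-1 cells measured by a cell viability assay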
Description: SANGER: Inhibition of human NOMO-1 cell growth in a cell viability assay.

MZ7-mel = format: functional, cell-based, Homo sapiens; conditions: Homo sapiens, MZ7-mel;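 further: growth inhibition of human MZ7-mel cells, measured by a cell viability assay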
Description: SANGER: Inhibition of human MZ7-mel cell growth in a cell viability assay.

OCI-AML2 = format: functional, cell-based; conditions: Homo sapiens;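 further: growth inhibition of OCI-AML2 cells, read out with a cell viability assay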
Description: SANGER: Inhibition of human OCI-AML2 cell growth in a cell viability assay.

UMUC3 = format: functional, cell-based, Homo sapiens; conditions: Homo sapiens, UMUC3;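 further: growth inhibition of human UM-UC-3 cells, read out with a cell viability assay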
Description: SANGER: Inhibition of human UM-UC-3 cell growth in a cell viability assay.

KURAMOCHI = format: functional, cell-based; conditions: Homo sapiens;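 further: growth inhibition of KURAMOCHI cells, read out with a cell viability assay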
Description: SANGER: Inhibition of human KURAMOCHI cell growth in a cell viability assay.

EW-16 = format: functional, cell-based, Homo sapiens; conditions: Homo sapiens, EW-16;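 further: growth inhibition of human EW-16 cells, read out as cell viability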
Description: SANGER: Inhibition of human EW-16 cell growth in a cell viability assay.

NB6 = format: functional, cell-based, Homo sapiens; conditions: Homo sapiens, NB6;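 further: growth inhibition of NB6 cells, read out by a cell viability assay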
Description: SANGER: Inhibition of human NB6 cell growth in a cell viability assay.

L-363 = format: functional, cell-based; conditions: Homo sapiens
Description: SANGER: Inhibition of human L-363 cell growth in a cell viability assay.

SBC-1 = format: functional, cell-based; conditions: Homo sapiens;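 further: cell viability assay measuring growth inhibition of the SBC-1 cell line, IC50 being the concentration that halves growth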
Description: SANGER: Inhibition of human SBC-1 cell growth in a cell viability assay.

EKVX = format: functional, cell-based, Homo sapiens; conditions: Homo sapiens, EKVX;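 further: growth inhibition of human EKVX cells, read out with a cell viability assay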
Description: SANGER: Inhibition of human EKVX cell growth in a cell viability assay.

SF-295 = format: functional, cell-based, Homo sapiens; conditions: Homo sapiens, SF-295; read-out: IC50;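 further: growth inhibition of SF-295 cells, read out with a cell viability assay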
Description: SANGER: Inhibition of human SF295 cell growth in a cell viability assay.

HCC2218 = format: functional, cell-based; conditions: Homo sapiens;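 further: cell viability assay read-out, with IC50 given as the concentration that inhibits growth of the cell line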
Description: SANGER: Inhibition of human HCC2218 cell growth in a cell viability assay.

IST-MES1 = format: functional, cell-based, Homo sapiens; conditions: Homo sapiens, IST-MES1;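 further: growth inhibition of IST-MES1 cells, measured with a cell viability assay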
Description: SANGER: Inhibition of human IST-MES1 cell growth in a cell viability assay.

SW837 = format: functional, cell-based, Homo sapiens; conditions: Homo sapiens, SW837;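 further: growth inhibition of SW837 cells, determined with a cell viability assay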
Description: SANGER: Inhibition of human SW837 cell growth in a cell viability assay.

TE-9 = format: functional, cell-based, Homo sapiens; conditions: Homo sapiens, TE-9;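 further: cell growth inhibition, measured with a cell viability readout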
Description: SANGER: Inhibition of human TE-9 cell growth in a cell viability assay.

SK-MEL-2 = format: functional, cell-based, Homo sapiens; conditions: Homo sapiens, SK-MEL-2;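 further: growth inhibition of human SK-MEL-2 cells measured with a cell viability assay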
Description: SANGER: Inhibition of human SK-MEL-2 cell growth in a cell viability assay.

Becker = format: functional, cell-based, Homo sapiens; conditions: Homo sapiens, Becker;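 further: growth inhibition of Becker cells, read out with a cell viability assay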
Description: SANGER: Inhibition of human Becker cell growth in a cell viability assay.

RXF 393 = format: functional, cell-based; conditions: Homo sapiens;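 further: growth inhibition of human RXF 393 cells, read out with a cell viability assay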
Description: SANGER: Inhibition of human RXF393 cell growth in a cell viability assay.

NB14 = format: functional, cell-based; conditions: Homo sapiens;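 further: growth inhibition of NB14 cells measured with a cell viability assay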
Description: SANGER: Inhibition of human NB14 cell growth in a cell viability assay.

769-P = format: functional, cell-based, Homo sapiens; conditions: Homo sapiens, 769-P
Description: SANGER: Inhibition of human 769-P cell growth in a cell viability assay.

RD = format: functional, cell-based, Homo sapiens; conditions: Homo sapiens, RD
Description: SANGER: Inhibition of human RD cell growth in a cell viability assay.

HCE-T = format: functional, cell-based, Homo sapiens; conditions: Homo sapiens, HCE-T;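 further: cell viability assay read-out, reporting inhibition of HCE-T cell growth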
Description: SANGER: Inhibition of human HCE-T cell growth in a cell viability assay.

GAK = format: functional, cell-based, Homo sapiens; conditions: Homo sapiens, GAK;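 further: cell growth inhibition read out by a cell viability assay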
Description: SANGER: Inhibition of human GAK cell growth in a cell viability assay.

LB1047-RCC = format: functional, cell-based, Homo sapiens; conditions: Homo sapiens, LB1047-RCC;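 further: inhibition of cell growth, determined with a cell viability assay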
Description: SANGER: Inhibition of human LB1047-RCC cell growth in a cell viability assay.

SKG-IIIa = format: functional, cell-based, Homo sapiens; conditions: Homo sapiens, SKG-IIIa;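 further: cell growth inhibition, read out with a cell viability assay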
Description: SANGER: Inhibition of human SKG-IIIa cell growth in a cell viability assay.

COLO-741 = format: functional, cell-based, Homo sapiens; conditions: Homo sapiens, COLO-741
Description: SANGER: Inhibition of human COLO-741 cell growth in a cell viability assay.

8305C = format: functional, cell-based, Homo sapiens; conditions: Homo sapiens, 8305C
Description: SANGER: Inhibition of human 8305C cell growth in a cell viability assay.

NCI-H2052 = format: functional, cell-based, Homo sapiens; conditions: Homo sapiens, NCI-H2052;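 further: growth inhibition of NCI-H2052 cells, read out with a cell viability assay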
Description: SANGER: Inhibition of human NCI-H2052 cell growth in a cell viability assay.

LK-2 = format: functional, cell-based, Homo sapiens; conditions: Homo sapiens, LK-2;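 further: growth inhibition of LK-2 cells, read out with a viability assay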
Description: SANGER: Inhibition of human LK-2 cell growth in a cell viability assay.

786-0 = format: functional, cell-based, Homo sapiens; conditions: Homo sapiens
Description: SANGER: Inhibition of human 786-0 cell growth in a cell viability assay.

NCI-H28 = format: functional, cell-based, Homo sapiens; conditions: Homo sapiens, NCI-H28;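 further: growth inhibition of human NCI-H28 cells, read out as cell viability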
Description: SANGER: Inhibition of human NCI-H28 cell growth in a cell viability assay.

GI-ME-N = format: functional, cell-based, Homo sapiens; conditions: Homo sapiens, GI-ME-N;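 further: growth inhibition of human GI-ME-N cells, read out with a cell viability assay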
Description: SANGER: Inhibition of human GI-ME-N cell growth in a cell viability assay.

A2780 = format: functional, cell-based, Homo sapiens; conditions: Homo sapiens, A2780;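 further: growth inhibition of A2780 cells, read out with a cell viability assay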
Description: SANGER: Inhibition of human A2780 cell growth in a cell viability assay.

RPMI-8226 = format: functional, cell-based; conditions: Homo sapiens
Description: SANGER: Inhibition of human RPMI-8226 cell growth in a cell viability assay.

GMS-10 = format: functional, cell-based, Homo sapiens; conditions: Homo sapiens, GMS-10;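 further: growth inhibition of GMS-10 cells, read out as cell viability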
Description: SANGER: Inhibition of human GMS-10 cell growth in a cell viability assay.

TE-10 = format: functional, cell-based, Homo sapiens; conditions: Homo sapiens, TE-10;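 further: growth inhibition of TE-10 cells, measured by a cell viability assay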
Description: SANGER: Inhibition of human TE-10 cell growth in a cell viability assay.

Calu-3 = format: functional, cell-based, Homo sapiens; conditions: Homo sapiens, Calu-3;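 further: growth inhibition of human Calu-3 cells, determined with a cell viability assay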
Description: SANGER: Inhibition of human Calu-3 cell growth in a cell viability assay.

HCC38 = format: functional, cell-based, Homo sapiens; conditions: Homo sapiens, HCC38;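 further: cell viability assay on the human HCC38 cell line, with IC50 marking the concentration that inhibits cell growth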
Description: SANGER: Inhibition of human HCC38 cell growth in a cell viability assay.

KARPAS-299 = format: functional, cell-based; conditions: Homo sapiens
Description: SANGER: Inhibition of human KARPAS-299 cell growth in a cell viability assay.

HuP-T3 = format: functional, cell-based, Homo sapiens; conditions: Homo sapiens, HuP-T3;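 further: HuP-T3 cell growth inhibition, read out with a cell viability assay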
Description: SANGER: Inhibition of human HuP-T3 cell growth in a cell viability assay.

COc1ccc(-c2ccc3c(N4CCOC[C@@H]4C)nc(N4CCOC[C@@H]4C)nc3n2)cc1CO [AZD-8055]
IC50 (COLO-829): > 2000 nM
IC50 (PC-3): 722 nM
IC50 (OVCAR-5): 429 nM
IC50 (HD-MY-Z): 841 nM
IC50 (NCI-N87): > 2000 nM
IC50 (BB30-HNC): 1860 nM
IC50 (ES8): 366 nM
IC50 (BHT-101): 408 nM
IC50 (KP-N-YN): > 2000 nM
IC50 (CAL-27): > 2000 nM
IC50 (C-33-A): 904 nM
IC50 (NOMO-1): > 2000 nM
IC50 (MZ7-mel): > 2000 nM
IC50 (OCI-AML2): > 2000 nM
IC50 (UMUC3): 1480 nM
IC50 (KURAMOCHI): > 2000 nM
IC50 (EW-16): 1440 nM
IC50 (NB6): > 2000 nM
IC50 (L-363): 390 nM
IC50 (SBC-1): 45.8 nM
IC50 (EKVX): 1140 nM
IC50 (SF-295): 685 nM
IC50 (HCC2218): 207 nM
IC50 (IST-MES1): > 2000 nM
IC50 (SW837): > 2000 nM
IC50 (TE-9): > 2000 nM
IC50 (SK-MEL-2): 642 nM
IC50 (Becker): 1520 nM
IC50 (RXF 393): 929 nM
IC50 (NB14): 164 nM
IC50 (769-P): > 2000 nM
IC50 (RD): > 2000 nM
IC50 (HCE-T): 1180 nM
IC50 (GAK): 1320 nM
IC50 (LB1047-RCC): 340 nM
IC50 (SKG-IIIa): 1310 nM
IC50 (COLO-741): > 2000 nM
IC50 (8305C): 708 nM
IC50 (NCI-H2052): 1860 nM
IC50 (LK-2): 268 nM
IC50 (786-0): 1090 nM
IC50 (NCI-H28): 587 nM
IC50 (GI-ME-N): 1030 nM
IC50 (A2780): 1720 nM
IC50 (RPMI-8226): 286 nM
IC50 (GMS-10): 1750 nM
IC50 (TE-10): > 2000 nM
IC50 (Calu-3): 1650 nM
IC50 (HCC38): > 2000 nM
IC50 (KARPAS-299): > 2000 nM
IC50 (HuP-T3): > 2000 nM

CN(Cc1cnc2nc(N)nc(N)c2n1)c1ccc(C(=O)N[C@@H](CCC(=O)O)C(=O)O)cc1 [METHOTREXATE]
IC50 (COLO-829): > 200 nM
IC50 (PC-3): > 200 nM
IC50 (OVCAR-5): > 200 nM
IC50 (HD-MY-Z): > 200 nM
IC50 (NCI-N87): > 200 nM
IC50 (BB30-HNC): 94.3 nM
IC50 (ES8): > 200 nM
IC50 (BHT-101): > 200 nM
IC50 (KP-N-YN): > 200 nM
IC50 (CAL-27): > 200 nM
IC50 (C-33-A): > 200 nM
IC50 (NOMO-1): 16.2 nM
IC50 (MZ7-mel): > 200 nM
IC50 (OCI-AML2): > 200 nM
IC50 (UMUC3): > 200 nM
IC50 (KURAMOCHI): > 200 nM
IC50 (EW-16): > 200 nM
IC50 (NB6): > 200 nM
IC50 (L-363): 14.3 nM
IC50 (SBC-1): > 200 nM
IC50 (EKVX): > 200 nM
IC50 (SF-295): > 200 nM
IC50 (IST-MES1): > 200 nM
IC50 (SW837): > 200 nM
IC50 (TE-9): > 200 nM
IC50 (SK-MEL-2): > 200 nM
IC50 (Becker): > 200 nM
IC50 (RXF 393): > 200 nM
IC50 (NB14): 75 nM
IC50 (769-P): 45.3 nM
IC50 (RD): > 200 nM
IC50 (HCE-T): > 200 nM
IC50 (GAK): > 200 nM
IC50 (LB1047-RCC): > 200 nM
IC50 (SKG-IIIa): > 200 nM
IC50 (COLO-741): 162 nM
IC50 (8305C): 196 nM
IC50 (NCI-H2052): > 200 nM
IC50 (LK-2): > 200 nM
IC50 (786-0): > 200 nM
IC50 (NCI-H28): > 200 nM
IC50 (GI-ME-N): 147 nM
IC50 (A2780): 54.5 nM
IC50 (RPMI-8226): 101 nM
IC50 (GMS-10): > 200 nM
IC50 (TE-10): > 200 nM
IC50 (Calu-3): > 200 nM
IC50 (HCC38): > 200 nM
IC50 (KARPAS-299): > 200 nM
IC50 (HuP-T3): > 200 nM

COc1ccc(C2=N[C@@H](c3ccc(Cl)cc3)[C@@H](c3ccc(Cl)cc3)N2C(=O)N2CCNC(=O)C2)c(OC(C)C)c1 [NUTLIN-3]
IC50 (COLO-829): 7240 nM
IC50 (PC-3): > 8000 nM
IC50 (OVCAR-5): > 8000 nM
IC50 (HD-MY-Z): > 8000 nM
IC50 (NCI-N87): > 8000 nM
IC50 (BB30-HNC): > 8000 nM
IC50 (ES8): > 8000 nM
IC50 (BHT-101): > 8000 nM
IC50 (KP-N-YN): > 8000 nM
IC50 (CAL-27): > 8000 nM
IC50 (C-33-A): > 8000 nM
IC50 (NOMO-1): > 8000 nM
IC50 (MZ7-mel): > 8000 nM
IC50 (OCI-AML2): > 8000 nM
IC50 (UMUC3): > 8000 nM
IC50 (KURAMOCHI): > 8000 nM
IC50 (EW-16): > 8000 nM
IC50 (NB6): > 8000 nM
IC50 (L-363): > 8000 nM
IC50 (SBC-1): > 8000 nM
IC50 (EKVX): > 8000 nM
IC50 (SF-295): > 8000 nM
IC50 (HCC2218): 7630 nM
IC50 (IST-MES1): 4410 nM
IC50 (SW837): > 8000 nM
IC50 (TE-9): > 8000 nM
IC50 (SK-MEL-2): > 8000 nM
IC50 (Becker): > 8000 nM
IC50 (RXF 393): > 8000 nM
IC50 (NB14): > 8000 nM
IC50 (769-P): > 8000 nM
IC50 (RD): > 8000 nM
IC50 (HCE-T): > 8000 nM
IC50 (GAK): > 8000 nM
IC50 (LB1047-RCC): > 8000 nM
IC50 (SKG-IIIa): > 8000 nM
IC50 (COLO-741): > 8000 nM
IC50 (8305C): > 8000 nM
IC50 (NCI-H2052): > 8000 nM
IC50 (LK-2): > 8000 nM
IC50 (786-0): > 8000 nM
IC50 (NCI-H28): 4630 nM
IC50 (GI-ME-N): 6220 nM
IC50 (A2780): > 8000 nM
IC50 (RPMI-8226): > 8000 nM
IC50 (GMS-10): > 8000 nM
IC50 (TE-10): > 8000 nM
IC50 (Calu-3): > 8000 nM
IC50 (HCC38): > 8000 nM
IC50 (KARPAS-299): > 8000 nM
IC50 (HuP-T3): > 8000 nM
